Measured values taken from patent publication US7910741B2, “Nitrogen-containing heterocyclic derivatives and drugs containing the same as the active ingredient” (Ono Pharmaceutical Co., Ltd., priority 2003, dated 2011).
Structures can show the parent of a compound that is named as a salt.

Columns and labels:
[1] = molecular target: T1, human CCR5 (Homo sapiens, UniProt P51681); experiment: Inhibition test on the binding of RANTES to CCR5 (RANTES-induced transient increase of Ca ion in CCR5/CHO cells); assay type: cell-based; settings: inhibition of RANTES (10 nM)-induced Ca2+ transient increase; CCR5/CHO cell
T1 construct: expressed in transfected cells; host or cells: Ba/F3
T1 sequence (P51681 whole entry): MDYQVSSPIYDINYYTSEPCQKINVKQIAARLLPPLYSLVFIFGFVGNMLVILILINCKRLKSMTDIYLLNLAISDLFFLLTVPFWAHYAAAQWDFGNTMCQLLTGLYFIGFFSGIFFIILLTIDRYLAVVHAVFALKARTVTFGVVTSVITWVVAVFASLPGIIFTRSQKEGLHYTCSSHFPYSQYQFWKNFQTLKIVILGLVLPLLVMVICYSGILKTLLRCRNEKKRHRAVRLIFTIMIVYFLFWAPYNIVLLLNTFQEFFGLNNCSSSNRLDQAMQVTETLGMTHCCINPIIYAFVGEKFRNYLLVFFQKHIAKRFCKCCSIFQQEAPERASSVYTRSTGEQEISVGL
Description: Inhibition test on the binding of RANTES to CCR5:
(1) Isolation of Human CCR5 Gene
Human placental cDNA was prepared using Marathon cDNA amplification kit (Clontech). PCR primers hCCR5Xbal-F1:
Using the human placental cDNA as the template and using Ex Taq (Takara), PCR reaction (2 minutes at 95° C.→(30 seconds at 95° C., 45 seconds at 60° C., 1 minute at 72° C.)×35 times) was carried out. The thus amplified PCR product was subjected to a 1% agarose gel electrophoresis, purified using QIAquick Gel Extraction Kit (QUIAGEN) and then digested with a restriction enzyme XbaI. The digested fragments were ligated to an expression vector pEF-BOS-bsr using DNA Ligation Kit Ver. 2 (Takara) and transformed into Escherichia coli DH5a. […]
The thus established human CCR5 stably over-expressing CHO cell (CCR5/CHO cell) was suspended in Ham's F-12 medium containing FBS (10%) and seeded at a density of […] into a 96 well plate. […] Transient increase in the intracellular Ca^2+ concentration induced by the human RANTES was measured using a Ca^2+ detector for 96 well use (Hamamatsu Photonics), and inhibition ratio (%) of the test compound was calculated by the following calculation formula. Inhibition ratio=(Ec−Ea)/Ec×100 • Ec: measured value of Ca^2+ transient increase by RANTES • Ea: measured value of Ca^2+ transient increase by RANTES when a test compound was added.

[2] = molecular target: T1, human CCR5; experiment: Migration test of human CCR5 expressing cell (hCCR5-Ba/F3 cell) against RANTES; assay type: cell-based
Description: Migration test of human CCR5 expressing cell (hCCR5-Ba/F3 cell):
The isolation was carried out according to the method of the isolation of human CCR5 gene as described in the above Example 1.
Ba/F3 cells were statically cultured by using RMMI-1640 medium (Gibco BRL) containing antibiotics (Antibiotic-Antimycotic) (final concentration: penicillin G sodium (100 U/mL), streptomycin sulfate (100 μg/mL), amphotericin B (0.25 μg/mL)) (Gibco BRL), fetal bovine serum (FBS) (10%), 2-mercaptoethanol (55 μM) and mouse interleukin-3 (IL-3) (5 ng/mL) (Pepro Tech, Inc) in a carbon dioxide incubator (temperature: 37° C., CO2 concentration: 5%, humidity: 95%). […]
The human CCR5 expression level in the clone obtained by the method described in the above (1-C) was detected with FAC Sort (trade name, Becton, Dickinson) by detecting the cells with a fluorescence isothiocyanate (FITC)-labeled anti-human CCR5 antibody (BD Pharmingen) and analyzed. […]
Influence of a test compound on the migration ability of the human CCR5 expressing Ba/F3 cell against RANTES, MIP-1α or […] was examined. […] The cells on the microplate were suspended in 100 μl of a phosphate buffer (PBS), and 1/10 portion thereof was further diluted with 90 μl of PBS, moved on a white plate for fluorescence assay, and used as an assay sample for migrated cell numbers (final: 100 μl/well). […]

Row | SMILES | IC50 [1] | cell migration inhibition ratio ([2]; concentration 10 μM) | cell migration inhibition ratio ([2]; concentration 30 μM)
1 | CCCCN(C(=O)C1CCCCC1)C1CCN(Cc2ccc(Oc3ccc(NS(C)(=O)=O)cc3)cc2)CC1 [Example 5(2), N-butyl-N-[1-(4-{4-[(methylsulfonyl)amino]phenoxy}benzyl)piperidin-4-yl]cyclohexanecarboxamide hydrochloride] | 77 nM | – | –
2 | CCCCN(C(=O)Nc1ccc(F)cc1F)C1CCN(Cc2ccc(Oc3ccc(NS(C)(=O)=O)cc3)cc2)CC1.Cl [Example 23(126), N-[4-(4-{[4-(butyl{[(2,4-difluorophenyl)amino]carbonyl}amino)-1-piperidinyl]methyl}phenoxy)phenyl]methanesulfonamide hydrochloride] | – | 42% | 77%
